Results taken from patent US10137138B1, “Sulfonylurea derivatives of oleanolic acid” (KING SAUD UNIVERSITY, priority 2018, dated 2018).

Columns and labels:
[1] = system: alloxan-induced diabetic mouse model; experiment: Sub-acute evaluation of in vivo oral hypoglycemic activity (21 days dosing, 7 days rest); conditions: diabetic mice, mean ± SEM, n=6; for % change in BG, 7 days rest period: day 28: 7 days rest after 21 days oral 200 μg/kg body weight; for % change in BG, 7 day / % change in BG, 14 day / % change in BG, 21 day: oral 200 μg/kg body weight daily; for % change in BG, 7 day: day 7; for % change in BG, 14 day: day 14; for % change in BG, 21 day: day 21
Procedure: The sulfonylurea derivative compounds were also screened for their oral hypoglycemic activity after several days of administration using the alloxan-induced diabetic mouse model, and percentage changes in blood glucose levels after oral administration ([…] body weight) were recorded (Table 2).
Briefly, animals were fasted overnight, and the fasting BG (0 day) levels were calculated. Test and control compounds were administered orally for 21 days at a fixed time and a fixed dose of 200 μg/kg body weight (homogenized suspension in 0.5% CMC and permissible amounts of Tween 80). After 21 days, treatment was stopped and animals were rested for a period of 7 days. Animals in the vehicle-treated group were then given an equal amount of 0.5% CMC and those of control group were untreated. Blood samples were removed from all animals throughout the course of the study at 7, 14, 21 and 28 days, and percentage change in BG was calculated. The data were analyzed by one-way ANOVA, followed by Dunnett's test. The results were expressed as mean±standard error of mean for each group, n=6 for each group, and p<0.01 or p<0.05 was considered as statistically significant (Table 2).

[2] = system: alloxan-induced diabetic mouse model; experiment: Acute evaluation of in vivo oral hypoglycemic activity; conditions: diabetic mice, single oral dose 200 μg/kg body weight, mean ± SEM, n=6
Procedure: The sulfonylurea derivatives of oleanolic acid were screened for their oral hypoglycemic activity in vivo using the alloxan-induced diabetic mouse model. In an acute evaluation, the percentage change in blood glucose levels in diabetic mice after oral administration of the test compounds (200 μg/kg body weight) was measured and summarized in Table 1 and FIG. 2.
Briefly, animals were fasted overnight and the fasting blood glucose (BG) (0 hour) levels were calculated. Test and control compounds were administered at a fixed dose of 200 μg/kg body weight orally (homogenized suspension in 0.5% carboxymethyl cellulose (CMC) and permissible amounts of Tween 80). Animals in the vehicle-treated group were given an equal volume of 0.5% CMC and control group animals were untreated. Blood samples were removed from all animals at 2, 4, 6 and 24 hours and the percentage change in BG was calculated. The data were analyzed by one-way ANOVA followed by Dunnett's test. The results were expressed as mean±standard error of mean for each group, n=6 for each group, and p<0.01 or p<0.05 was considered as statistically significant.

Row | SMILES | % change in BG, 7 days rest period [1] [%] | % change in BG, 7 day [1] [%] | % change in BG, 14 day [1] [%] | % change in BG, 21 day [1] [%] | % change in BG, 2 h [2] [%] | % change in BG, 4 h [2] [%] | % change in BG, 6 h [2] [%] | % change in BG, 24 h [2] [%]
1 | COc1ccc(Cl)cc1C(=O)NCCc1ccc(S(=O)(=O)NC(=O)NC2CCCCC2)cc1 [Glibenclamide, glibenclamide] | −28.48 ± 0.58 | −16.23 ± 0.32 | −22.57 ± 0.54 | −30.87 ± 0.58 | −35.55 ± 1.55 | −26.54 ± 1.32 | −15.58 ± 0.88 | −11.24 ± 0.11
2 | CC1(C)CC[C@]2(C(=O)O)CC[C@]3(C)C(=CC[C@@H]4[C@@]5(C)CC[C@H](O)C(C)(C)[C@@H]5CC[C@]43C)[C@@H]2C1 [Oleanolic acid, oleanolic acid] | −30.32 ± 0.83 | −10.56 ± 0.80 | −20.35 ± 0.72 | −37.68 ± 0.78 | −40.79 ± 1.20 | −48.66 ± 1.31 | −52.17 ± 1.31 | −51.01 ± 1.11
3 | CC1CCC(NC(=O)NS(=O)(=O)c2ccc(CCNC(=O)C34CCC(C)(C)CC3C3=CCC5C6(C)CCC(=O)C(C)(C)C6CCC5(C)C3(C)CC4)cc2)CC1 (stereo not drawn) [Compound 3b, N1-[4-(3-Oxo-18β-olean-12-ene-28-amido-ethyl)-benzenesulfonyl]-N2-(4-methylcyclohexyl)-urea] | −82.12 ± 1.17 | −80.80 ± 0.80 | −84.98 ± 1.16 | −88.89 ± 1.12 | −75.56 ± 0.86 | −80.97 ± 0.92 | −88.89 ± 0.98 | −76.76 ± 0.89
4 | CC1(C)CC[C@]2(C(=O)NCCc3ccc(S(=O)(=O)NC(=O)NC4CCCCC4)cc3)CC[C@]3(C)C(=CC[C@@H]4[C@@]5(C)CCC(=O)C(C)(C)[C@@H]5CC[C@]43C)[C@@H]2C1 [Compound 3a, N1-[p-(4-Oxo-18β-olean-12-ene-28-amido-ethyl)-benzenesulfonyl]-N2-cyclohexyl-urea] | −81.78 ± 0.90 | −76.87 ± 0.89 | −80.09 ± 0.90 | −87.65 ± 0.95 | −72.76 ± 0.78 | −77.76 ± 0.90 | −83.56 ± 0.83 | −74.44 ± 0.74
